Assay results from ChEMBL document CHEMBL1156829 (Proc Natl Acad Sci U S A, 2008).

Columns and labels:
[1] = tested on: Plasmodium falciparum; test: NOVARTIS: Inhibition of Plasmodium falciparum 3D7 (drug-susceptible) proliferation in erythrocyte-based infection assay; type: functional, organism-based
[2] = NOVARTIS: Cytotoxicity against human hepatocellular carcinoma cell line (Huh7); type: toxicity, cell-based, Huh-7; details: Huh7 cells (hepatocellular carcinoma cell line)
[3] = tested on: Plasmodium falciparum; test: NOVARTIS: Inhibition of Plasmodium falciparum W2 (drug-resistant) proliferation in erythrocyte-based infection assay; type: functional, organism-based; details: read-out: EC50

| Compound | EC50 [1] | CC50 [2] | EC50 [3] | EC50 ([1]; Plasmodium falciparum, 3D7) | EC50 ([3]; Plasmodium falciparum, W2) |
| --- | --- | --- | --- | --- | --- |
| Cc1ccc(C=Cc2ccc(N(C)C)cc2)[n+](C)c1 | 397 nM | > 60.5 µM | 400 nM |  |  |
| CC(C)(C)CC(C)(C)Nc1c(-c2ccccc2OC(=O)c2ccc(C(F)(F)F)cc2)nc2ccccn12 |  | > 10 µM |  | 670 nM | 64 nM |
| CCc1ccc(C(=O)C[n+]2cc(-c3ccc(OC)cc3)n3c2CCC3)cc1 |  | > 98 µM |  | 677 nM | 857 nM |
| CCN1CCN(CCN2C(=O)C3C(C(=O)Nc4ccc(C(C)C)cc4)C4C=CC3(O4)C2C(=O)NC2CCCCC2)CC1 (stereo unspecified) |  | > 100 µM |  | > 12500 nM | 5820 nM |
| CCC(c1nc2cc(Cl)ccc2c(=O)n1CC)N(CC)C(=O)c1ccc2ccccc2c1 (stereo unspecified) |  | > 10 µM |  | > 1220 nM | 1230 nM |
| CCOC(=O)N1CCN(C(=O)c2ccc(N3CC4CC(C3)c3cccc(=O)n3C4)c(NS(=O)(=O)c3ccc4c(c3)OCCO4)c2)CC1 (stereo unspecified) |  | > 100 µM |  | 2470 nM | 589 nM |
| COc1ccc(OC)c(-c2ccc(O)c(CN(C)CC(O)c3ccccc3)c2)c1 (stereo unspecified) |  | 66.3 µM |  | 243 nM | 124 nM |
| COc1cccc(NCC(O)Cn2c3ccc(Cl)cc3c3cc(Cl)ccc32)c1 (stereo unspecified) |  | 51.3 µM |  | 2130 nM | 1190 nM |
| CCCCNC(=O)NC(Cc1c[nH]c2ccccc12)C(=O)NC1CCCCC1 (stereo unspecified) |  | > 2.02 µM |  | > 1250 nM | > 28.3 nM |
| CCOC(=O)c1cnc(SCC(=O)Nc2cc(C)ccc2C)nc1N |  | > 10 µM |  | > 1250 nM | > 660 nM |
| O=C1CC(c2ccc(O)cc2)C2=C(CC(c3ccccc3Cl)CC2=O)N1 (stereo unspecified) |  | > 100 µM |  | 672 nM | 391 nM |
| CCOC(=O)C1=C(C)NC2=C(C(=O)CC(c3ccc(Cl)cc3)C2)C1c1ccc(Cl)cc1 (stereo unspecified) |  | > 100 µM |  | 89.4 nM | 51.5 nM |
| COc1cc(OC)nc(CSc2ccc(NC(=O)CCl)cc2)n1 |  | > 10 µM |  | 518 nM | 479 nM |
| CN(C)c1ccc(C=NNc2nc(N)nc(N)n2)cc1 |  | > 10 µM |  | 2000 nM | > 1250 nM |
| CCOC(=O)CCC(=O)Oc1cc(C(C)(C)C)nn1-c1ccc(Cl)c(Cl)c1 |  | > 11.1 µM |  | > 1230 nM | 203 nM |
| O=C(Nc1ccc(OC(F)(F)F)cc1)c1cnn2c1NC(c1cccs1)CC2C(F)(F)F (stereo unspecified) |  | > 50 µM |  | 492 nM | 241 nM |
| CCCCc1ccc(C(=O)N(CCC(=O)Nc2nnc(-c3ccc(OC)cc3)s2)CCc2ccc(OC)c(OC)c2)cc1 |  | > 10 µM |  | 1240 nM | > 757 nM |
| c1ccc(CCNc2ncnc3c2[nH]c2ccccc23)cc1 |  | 15.6 µM |  | 167 nM | 136 nM |
| CC(C)CNc1nc(NCCCn2ccnc2)ncc1C(=O)NCCc1ccccc1 |  | > 10 µM |  | 274 nM | 696 nM |
| O=C1CSC(=Nc2ccc(F)c(Cl)c2)N1c1ccc(F)c(Cl)c1 |  | > 10 µM |  | > 1250 nM | 26.7 nM |
| Cc1cc(C)cc(NC(=O)CCCn2c3ccccc3c(=O)c3cc(C)ccc32)c1 |  | > 100 µM |  | 4280 nM | 3610 nM |
| Nc1ccc(C(=O)NN=Cc2cccc([N+](=O)[O-])c2)cc1 |  | > 10 µM |  | 298 nM | 112 nM |
| CC(C)CNC(=O)c1cnc(NCCCN2CCCCC2C)nc1NCCc1ccccc1 (stereo unspecified) |  | > 10 µM |  | 374 nM | 1570 nM |

| Compound | EC50 [1] | CC50 [2] | EC50 [3] | EC50 ([1]; Plasmodium falciparum, 3D7) | EC50 ([3]; Plasmodium falciparum, W2) |
| --- | --- | --- | --- | --- | --- |
| Clc1ccc(C2Nc3ccc4ccccc4c3C3C=CCC32)c(Cl)c1 (stereo unspecified) |  | > 10 µM |  | > 1250 nM | > 1200 nM |
| CC(C)CSc1nc2sc3c(c2c(=O)n1-c1ccccc1)CCN(Cc1ccccc1)C3 |  | > 100 µM |  | 945 nM | 392 nM |
| O=C(Cc1ccccc1)NCc1ccc(Nc2c(-c3cccnc3)nc3ccccn23)cc1 |  | > 10 µM |  | 34.2 nM | < 6.13 nM |
| CN1C=C(c2ccc3ccccc3n2)C(c2c[nH]c3ccccc23)c2ccccc21 (stereo unspecified) |  | > 100 µM |  | 1140 nM | 1210 nM |
| O=C(Oc1ccc(-c2ccc(OC(=O)c3ccco3)cc2)cc1)c1ccco1 |  | > 10 µM |  | > 738 nM | 973 nM |
| CC1(C)C2CCC(C2)C1(C)NC(=S)NN=Cc1ccccn1 (stereo unspecified) |  | 54.7 µM |  | 34.8 nM | 38.2 nM |
| CN(CCCNc1ccnc2cc(Cl)ccc12)C(=O)CC(C)(C)C |  | > 10 µM |  | 236 nM | 173 nM |
| O=C(Nc1ccc2oc(-c3ccc(I)cc3)nc2c1)c1ccc([N+](=O)[O-])o1 |  | 33.8 µM |  | 3160 nM | 2200 nM |
| CN(CCCNc1ccnc2cc(Cl)ccc12)S(=O)(=O)c1ccc(Br)cc1 |  | 6.88 µM |  | 186 nM | 295 nM |
| CCC12C(=O)C(CC)(C(c3ccccc3)=C1c1ccccc1)C1C(=O)N(c3cccc(C(F)(F)F)c3)C(=O)C12 (stereo unspecified) |  | > 100 µM |  | 2410 nM | 401 nM |
| COc1ccc(C2C(C(=O)Nc3cnc4ccccc4c3)c3ccccc3C(=O)N2Cc2ccc(F)cc2)cc1 (stereo unspecified) |  | > 100 µM |  | 2170 nM | 941 nM |
| CCCCNCCN1CCN(c2ccc3ccccc3c2)C[C@@H]1c1ccccc1 |  | 8.16 µM |  | 34.5 nM | 2.45 nM |
| COc1ccc(C(=O)Oc2ccccc2-c2nc3cc(C)ccn3c2NC(C)(C)CC(C)(C)C)c(OC)c1 |  | > 10 µM |  | 1630 nM | 283 nM |
| COc1ccccc1N1C(=N)S/C(=C\c2ccc(OCc3ccccc3F)cc2)C1=O |  | > 10 µM |  | 741 nM | 434 nM |
| OC(CN1CCN(CC=Cc2ccccc2)CC1)Cn1c2ccc(Br)cc2c2cc(Br)ccc21 (stereo unspecified) |  | > 54.1 µM |  | 1960 nM | 426 nM |
| O=C(c1cc2n(n1)C(C(F)(F)F)CC(c1ccc3c(c1)OCO3)N2)N1CCN(C(c2ccccc2)c2ccccc2)CC1 (stereo unspecified) |  | > 100 µM |  | 5260 nM | 1600 nM |
| CCN(CC)CCCN(Cc1cc2c(C)cc(C)cc2[nH]c1=O)C(=S)NCCCN(C)C |  | > 100 µM |  | 2090 nM | 1000 nM |
| Oc1ccc(-c2ccccc2)cc1CNCCc1ccc(F)cc1 |  | > 10 µM |  | 691 nM | < 9.74 nM |
| O=C(Nc1ccccc1)/C(=C\c1ccncc1)NC(=O)c1ccccc1 |  | > 10 µM |  | > 1250 nM | > 955 nM |
| Oc1ccc(-c2ccnc3cc(Cl)ccc23)cc1CNCCCn1ccnc1 |  | > 10 µM |  | 167 nM | 403 nM |
| FC(F)(F)c1cccc(Nc2nnnc3ccccc23)c1 |  | > 10 µM |  | 756 nM | 433 nM |
| C/C=C/[P+](c1ccccc1)(c1ccccc1)c1ccccc1 |  | 2.81 µM |  | 52.8 nM | 130 nM |
| CCOC(=O)C1=NNC2C(=O)N(c3cccc(C)c3C)C(=O)C12 (stereo unspecified) |  | > 10 µM |  | > 1250 nM | 563 nM |

| Compound | EC50 [1] | CC50 [2] | EC50 [3] | EC50 ([1]; Plasmodium falciparum, 3D7) | EC50 ([3]; Plasmodium falciparum, W2) |
| --- | --- | --- | --- | --- | --- |
| CCC(c1nc2ccccc2c(=O)n1-c1ccc(F)c(Cl)c1)N(CCc1ccccc1)C(=O)COc1ccc(Cl)cc1 (stereo unspecified) |  | > 6.45 µM |  | 941 nM | < 0.849 nM |
| OC(CN1CCN(CC=Cc2ccccc2)CC1)Cn1c2ccc(Cl)cc2c2cc(Cl)ccc21 (stereo unspecified) |  | 17.9 µM |  | 181 nM | 75 nM |
| Cc1oc(-c2cccc(C(F)(F)F)c2)cc1C(=O)O |  | > 10 µM |  | > 887 nM | 267 nM |
| COc1ccc(C2C(C(=O)Nc3cccc(Cl)c3)c3ccccc3C(=O)N2C2CCCCC2)cc1 (stereo unspecified) |  | > 100 µM |  | 1550 nM | 930 nM |
| O=C(NC(C(=O)c1ccccc1)N1CCCCC1)c1ccco1 (stereo unspecified) |  | > 10 µM |  | > 831 nM | > 1760 nM |
| COC(=O)C1=C(C)NC(=Cc2cc(C)n(-c3cc(C)ccc3C)c2C)C1=O |  | > 100 µM |  | 9.53 nM | 18.4 nM |
| CCOC(=O)C1=C(C)NC2=C(C(=O)C(C(=O)OCC)C(c3cccc(OC)c3)C2)C1c1ccc([N+](=O)[O-])cc1 (stereo unspecified) |  | > 54.6 µM |  | 54.2 nM | 37.2 nM |
| CCCCOc1ccc(C(=O)Nc2cc(C)on2)cc1 |  | > 100 µM |  | 3160 nM | 510 nM |
| Oc1ncnc2c1C(c1ccccc1)c1c(O)ncnc1O2 |  | > 8.83 µM |  | > 882 nM | > 462 nM |
| CN1CCN(c2nc(NN=Cc3ccc(O)cc3)nc(Nc3ccc([N+](=O)[O-])cc3)n2)CC1 |  | > 10 µM |  | > 1250 nM | 1340 nM |
| COc1cc2c(OC3OCC(OC)C(OC)C3O)c3c(c(-c4ccc5c(c4)OCO5)c2cc1OC)C(=O)OC3 (stereo unspecified) |  | > 10 µM |  | 81.7 nM | 28.3 nM |
| COCCCNC(=O)CSCc1nc(-c2ccccc2F)oc1C |  | > 10 µM |  | > 467 nM | > 1740 nM |
| Clc1cccc(Nc2nc(NCc3ccco3)c3ccccc3n2)c1 |  | 16.1 µM |  | 112 nM | 203 nM |
| CC(C)OC(=O)c1cccnc1SCC(=O)Nc1ccc(C(F)(F)F)cc1Cl |  | > 100 µM |  | 5540 nM | 1500 nM |
| O=C(/C=C/Nc1ccccc1NS(=O)(=O)c1ccc([N+](=O)[O-])cc1)c1ccccc1 |  | > 10 µM |  | > 1250 nM | 419 nM |
| O=c1c2ccccc2nc2n1CCN2Cc1ccc(Cl)cc1 |  | > 100 µM |  | 1610 nM | 1630 nM |
| N#C/C(=C\c1ccc(Sc2ccccc2)o1)c1nc2ccccc2[nH]1 |  | > 10 µM |  | 1510 nM | 947 nM |
| CCOC(=O)C1=C(C)NC(=Cc2cc(C)n(-c3ccc(C)cc3C)c2C)C1=O |  | > 100 µM |  | 64.4 nM | 78.5 nM |
| C=CCn1c(=O)c(C(=O)NCC[N+](CC)(CC)CC=C)c(O)c2ccccc21 |  | > 100 µM |  | 1130 nM | 385 nM |
| COc1ccc(C(=O)NC(c2ccccc2Cl)c2cc(Cl)c3cccnc3c2O)cc1 (stereo unspecified) |  | > 87 µM |  | 2370 nM | 833 nM |
| CC(C(=O)N1CCN(C(c2ccccc2)c2ccccc2)CC1)N(CCN1CCOCC1)S(=O)(=O)c1ccccn1 (stereo unspecified) |  | > 10 µM |  | > 819 nM | 287 nM |
